According to patent US12427163B2, “Anti-VTCN1 antibodies and antibody drug conjugates” (Bluefin BioMedicine, Inc., priority 2017, dated 2025):

Columns and labels:
4T1 tumors = assay: 4T1 mouse triple negative breast cancer model in Balb/C mice; type: in vivo
Protocol: 6-8 week-old Balb/C mice were injected with 0.1 million of 4T1 cells in the mammary fat pad. On day 5, mice were randomized to 4 treatment groups, PBS, 6D9 (10 mg/kg), Gemcitabine (75 mg/kg), and 6D9 (10 mg/kg) plus gemcitabine (75 mg/kg). All treatments were by intraperitoneal injection and mice received a total of 5 treatments on days 5, 8, 12, 14, and 16.
The tumors and lymph nodes were harvested from these mice, and cells were dissociated and subjected to immune cell profiling by flow cytometry analysis.

human monocytes = assay: Cytokine treatment of monocytes, expression of VTCN1, PD-L1, CD80 by flow cytometry; type: cell-based; details: 24, 48, or 73 hours
Protocol: VTCN1 is expressed in monocytes and macrophages in a tumor microenviroment, the expression induced by cytokines in tumor microenviroment. VTCN1 positive macrophages inhibit T cell activation. Monocytes from healthy donors were treated with IFNγ and IL-6 to assess VTCN1 expression. Monocytes were enriched from fresh PBMC from healthy donor using a monocyte enrichment kit from Stemcell Technologies, and the purity of the obtained monocytes is greater than 95%. Monocytes were cultured in 24 well plate with different concentration of INFγ or LI-6 for 24, 48, or 73 hours, expression of VTCN1, PD-L1, and CD80 was assessed by flow cytometry. […] CD80 was expressed at low level in monocytes, and is not very responsive to cytokine treatment.

With Nc1ccn([C@@H]2O[C@H](CO)[C@@H](O)C2(F)F)c(=O)n1 [Gemcitabine, gemcitabine] the 4T1 tumor growth (4T1 tumors; 6D9 10 mg/kg, gemcitabine 75 mg/kg, i.p., days 5, 8, 12, 14, 16) was “totally inhibited tumor growth at the early stage of the study with tumor regrowth after 30 days” and the “tumor-free mice (complete response; CR) at end of study on day 65” value (4T1 tumors; mouse, in vivo) was “none of the mice in the gemcitabine alone group were tumor-free”.
“IL6: cytokine added to human monocyte cultures” was tested, and the “VTCN1 and PD-L1 expression in monocytes” value (human monocytes) was “VTCN1 and PD-L1 expression was induced”.
